Assay results as given in patent US4755594A, “N^6 -substituted adenosines” (Warner-Lambert Company, priority 1986, dated 1988).

Columns and labels:
[1] = Antihypertensive evaluation (AHP3), aortic blood pressure in conscious rats; format: in vivo; settings: conscious rat
Text: ANTIHYPERTENSIVE EVALUATION (AHP3)
This test procedure is described in the following paragraphs.
A Method for the Direct Monitoring of Aortic Blood
Pressure and Heart Rate from Conscious Rats
The continuous monitoring of pulsatile blood pressure (BP) from unrestrained conscious rats surgically equipped with polyethylene cannulas was accomplished by means of a computer assisted data capture scheme (CADCS). The basic elements of the methodology are the cannulation procedure and the CADCS.
Rats were anesthetized with Telazol (1:1 tiletamine HCl and zolazepam HCl); 20-40 mg/kg IM and the descending aorta exposed via a midline incision. Cannulas fabricated from polyethylene tubing were inserted into the aorta via an undersized puncture hole below the renal arteries. The puncture hole was made by a 23 G disposable needle with a section of the aorta clamped off above and below the puncture site. The cannulas, consisting of a PE100 (0.86 mm ID) body and a PE50 (0.58 mm ID) tip, were attached to a trocar, inserted through the psoas muscle, and passed subcutaneously along the midline of the back and externalized between the ears. The cannulas were anchored to the psoas muscle and between the scalulae (3-0 green braided suture). The midline incision was closed in two steps (muscle first, skin second) using continuous over-and-over sutures (4-0 chronic). Each rat was then given penicillin 30,000 units subcutaneously (Penicillin G Procaine Sterile Suspension).
The rats were fitted with a harness-spring-swivel assembly designed to protect the cannula and to provide the rat relative freedom of movement. The harnesses were fabricated from nylon hook and loop tape cemented to a metal plate to which spring wires (18-8 stainless steel) were attached to brass swivels. Each polyethylene cannula was channeled through a spring and connected through a swivel to a pressure transducer (Model P23Gb; Statham Instruments; Hato Rey, Puerto Rico) and an infusion pump (Sage model 234-7; Orion Research, Cambridge MA) by means of PE100 tubing. While on test, each rat received a continuous slow infusion of heparinized saline solution (approximately 400 μl or 40 units of heparin per 24 hours period) to prevent clot formation. Additional "flushes" of the cannula with heparinized saline were carried out when the aortic pulse pressure (systolic minus diastolic) was less than 25 mm Hg.
The pulsatile blood pressure and heart rate of each of 32 rats was monitored every minute by means of two in-laboratory microcomputers communicating directly with a data concentrator computer. The data were first stored on the data concentrator disk and then transferred to a magnetic tape for analysis and report generation by the main research computer. The overall scheme involved modulating the primary signal from the pressure transducer, generating the primary data set of the one-minute values for systolic, diastolic, and mean blood pressures and heart rate by the in-lab microcomputer and the storage, analysis, and report generation by the main research computer.
The transducers were connected to analog signal conditioning modules. The modules provided a regulated excitation voltage for the transducers, amplification as required to interface the microprocessors and an active low pass filter to compensate for the pressure wave form distortion produced by the flexible, fluid filled, narrow cannula. The distortion was 22-26 Hz and this provided a reliable estimate of both systolic and diastolic blood pressure.
The microcomputers (one for each of two groups of 16 rats) were connected to the input components through the module interface units, an analog-to-digital converter for the pressure wave form signal and the digital inputs for the dose and event marker switches. The microcomputer controlled the sequential acquisition of data from the modular interface units through an internal synchronous time-of-day clock/time base generator. […]

[2] = Conditioned shock avoidance (SIDR), antipsychotic; format: in vivo, male Long-Evans rats; settings: Rattus norvegicus; read-out: ED50 in the SIDR protocol
Method: (§1) Representative compounds of the invention (identified in the Examples) were also tested for antipsychotic activity according to the following protocol (SIDR or SIDSM). The noted compound has the indicated ED50 values (mg/kg) and is considered active as an antipsychotic agent in the test procedure.
(§2) Mature male Long-Evans rats (SIDR) or squirrel-monkeys (SIDSM) are conditioned to push a lever in order to avoid a painful electric footshock. If the animals fails to push the lever, he receives a shock every ten seconds until the lever is pushed. Shocks can be terminated by pushing the lever. Thereafter, as long as the lever is pushed at least once every 20 seconds, there will be no shock.
(§3) Each animal acts as its own control; one weekly session is used to establish baseline behavior and another session later in the week is used as a drug session. Once patterns of avoidance are established, the effects of standard and unknown compounds are studied.

[3] = Conditioned shock avoidance (SIDSM), antipsychotic; format: in vivo, squirrel-monkeys; settings: Primates; squirrel-monkey; read-out: ED50 in the SIDSM protocol
Method: as §1, §2, §3

Row | SMILES | Maximum BP ↓ MAP ([1]; 10 mg/kg) | Maximum BP ↓ MAP ([1]; 3 mg/kg) | also measured
1 | OC[C@H]1O[C@@H](n2cnc3c(NCC4(c5ccc(Cl)cc5)CC4)ncnc32)[C@H](O)[C@@H]1O [Example 12, N6-((1-(4-Chlorophenyl)cyclopropyl)methyl)adenosine] | 23% | – | –
2 | OC[C@H]1O[C@@H](n2cnc3c(NCC4(c5cccs5)CC4)ncnc32)[C@H](O)[C@@H]1O [Example 3, N6-((1-Thien-2-ylcyclopropyl)methyl)adenosine] | – | 43% | –
3 | OC[C@H]1O[C@@H](n2cnc3c(NCC4(c5ccccc5)CCCC4)ncnc32)[C@H](O)[C@@H]1O [Example 10, N6-((1-Phenylcyclopentyl)methyl)adenosine] | 10% | – | –
4 | OC[C@H]1O[C@@H](n2cnc3c(NCC4(c5ccccc5)CCCCC4)ncnc32)[C@H](O)[C@@H]1O [Example 11, N6-((1-Phenylcyclohexyl)methyl)adenosine] | 5% | – | –
5 | OC[C@H]1O[C@@H](n2cnc3c(NCC4(c5ccccc5)CC4)ncnc32)[C@H](O)[C@@H]1O [Example 1, N6-((1-Phenylcyclopropyl)methyl)adenosine] | 23% | 23% | ED50 [2]: 0.55 mg/kg; ED50 [3]: 0.52 mg/kg; Maximum BP ↓ MAP ([1]; 1 mg/kg): 13%
6 | OC[C@H]1O[C@@H](n2cnc3c(NCC4(c5cccs5)CCC4)ncnc32)[C@H](O)[C@@H]1O [Example 9, N6-((1-Thien-2-ylcyclobutyl)methyl)adenosine] | – | 10% | –
7 | OC[C@H]1O[C@@H](n2cnc3c(NCC4(c5ccccc5)CCC4)ncnc32)[C@H](O)[C@@H]1O [Example 7, N6-((1-Phenylcyclobutyl)methyl)adenosine] | 32% | – | –
